Ten compounds from patent publication US20210094971A1, “HETEROCYCLIC COMPOUNDS” (Hoffmann-La Roche Inc., priority 2019, published 2021) can be followed below.

One may read the IC50 as the point on the concentration scale where inhibition reaches its midpoint. The low end stands for inhibition by little substance, the high end for a need for much substance.

For this assay, the target named is T1, MAGL (Homo sapiens, UniProt Q99685).
T1 sequence (Q99685 1-303): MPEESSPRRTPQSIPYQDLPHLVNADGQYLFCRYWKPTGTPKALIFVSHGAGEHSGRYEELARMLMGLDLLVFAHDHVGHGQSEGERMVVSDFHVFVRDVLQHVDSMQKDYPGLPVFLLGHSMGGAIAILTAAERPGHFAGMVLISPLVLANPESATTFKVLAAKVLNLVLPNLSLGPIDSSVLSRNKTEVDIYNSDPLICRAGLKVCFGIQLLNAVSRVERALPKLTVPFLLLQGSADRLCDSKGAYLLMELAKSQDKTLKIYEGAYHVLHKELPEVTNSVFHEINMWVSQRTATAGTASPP
Put plainly: 2-AG assay (MAGL inhibitory activity, hydrolysis of 2-arachidonoylglycerol followed by mass spectrometry). In kind it is biochemical. Conditions: 50 pM MAGL, 8 μM 2-arachidonoylglycerol, 15 min pre-incubation, 30 min incubation at RT. As for the experimental part: Compounds were profiled for MAGL inhibitory activity by determining the enzymatic activity by following the hydrolysis of the natural substrate 2-arachidonoylglycerol resulting in arachidonic acid, which can be followed by mass spectrometry. This assay is hereinafter abbreviated “2-AG assay”.
The 2-AG assay was carried out in 384 well assay plates (PP, Greiner Cat# 784201) in a total volume of 20 μL. Compound dilutions were made in 100% DMSO (VWR Chemicals 23500.297) in a polypropylene plate in 3-fold dilution steps to give a final concentration range in the assay from 12.5 μM to 0.8 pM. 0.25 μL compound dilutions (100% DMSO) were added to 9 μL MAGL in assay buffer (50 mM TRIS (GIBCO, 15567-027), 1 mM EDTA (Fluka, 03690-100 ml), 0.01% (v/v) Tween. After shaking, the plate was incubated for 15 min at RT. To start the reaction, 10 μL 2-arachidonoylglycerol in assay buffer was added. The final concentrations in the assay was 50 pM MAGL and 8 μM 2-arachidonoylglyerol. After shaking and 30 min incubation at RT, the reaction was quenched by the addition of 40 μL of acetonitrile containing 4 μM of d8-arachidonic acid. The amount of arachidonic acid was traced by an online SPE system (Agilent Rapidfire) coupled to a triple quadrupole mass spectrometer (Agilent 6460). A C18 SPE cartridge (G9205A) was used in an acetonitrile/water liquid setup. The mass spectrometer was operated in negative electrospray mode following the mass transitions 303.1→259.1 for arachidonic acid and 311.1→267.0 for d8-arachidonic acid. The activity of the compounds was calculated based on the ratio of intensities [arachidonic acid/d8-arachidonic acid].
`O=C1CO[C@H]2CCN(C(=O)N3CC4CC(C3)C4OCc3ccc(C(F)(F)F)cc3F)C[C@H]2N1` (stereo partly drawn) [Example 22, (4aR,8aS)-6-[6-[[2-fluoro-4-(trifluoromethyl)phenyl]methoxy]-3-azabicyclo[3.1.1]heptane-3-carbonyl]-4,4a,5,7,8,8a-hexahydropyrido[4,3-b][1,4]oxazin-3-one]: it took 217 nM to reach half-maximal inhibition (IC50).

For `O=C1CO[C@H]2CCN(C(=O)N3[C@@H]4COC[C@H]3C[C@@H](OCc3ccc(C(F)(F)F)cc3F)C4)C[C@H]2N1` [Example 23, (4aR,8aS)-6-[(1S,5R)-7-[[2-fluoro-4-(trifluoromethyl)phenyl]methoxy]-3-oxa-9-azabicyclo[3.3.1]nonane-9-carbonyl]-4,4a,5,7,8,8a-hexahydropyrido[4,3-b][1,4]oxazin-3-one], the midpoint of inhibition, the IC50, lay at 628 nM. For `O=C1CO[C@H]2CCN(C(=O)N3[C@@H]4CC[C@H]3C[C@H](OCc3ccc(C(F)(F)F)cc3F)C4)C[C@H]2N1` [Example 24, (4aR,8aS)-6-[(1S,5R)-3-[[2-fluoro-4-(trifluoromethyl)phenyl]methoxy]-8-azabicyclo[3.2.1]octane-8-carbonyl]-4,4a,5,7,8,8a-hexahydropyrido[4,3-b][1,4]oxazin-3-one] the value was 1.4 nM; for `O=C1CO[C@H]2CCN(C(=O)N3C[C@@H]4[C@@H](COc5ccc(C(F)(F)F)cc5F)[C@@H]4C3)C[C@H]2N1` [Example 25, (4aR,8aS)-6-[(1R,5S,6r)-6-[[2-fluoro-4-(trifluoromethyl)phenoxy]methyl]-3-azabicyclo[3.1.0]hexane-3-carbonyl]-4,4a,5,7,8,8a-hexahydropyrido[4,3-b][1,4]oxazin-3-one], 32 nM; for `O=C1CO[C@H]2CCN(C(=O)N3C4CCC3CC(COc3ccc(F)cc3Cl)C4)C[C@H]2N1` (stereo partly drawn) [Example 26, (4aR,8aS)-6-[3-[(2-chloro-4-fluoro-phenoxy)methyl]-8-azabicyclo[3.2.1]octane-8-carbonyl]-4,4a,5,7,8,8a-hexahydropyrido[4,3-b][1,4]oxazin-3-one], 3690 nM. In turn, `O=C1CO[C@@H]2CCN(C(=O)N3CC4CCC(C3)C4COc3ccc(F)cc3Cl)C[C@@H]2N1` (stereo partly drawn) [Example 27, (4aS,8aR)-6-[8-[(2-chloro-4-fluoro-phenox)methyl]-3-azabicyclo[3.2.1]octane-3-carbonyl]-4,4a,5,7,8,8a-hexahydropyrido[4,3-b][1,4]oxazin-3-one] displayed an IC50 of 670 nM. For “(4aR,8aS)-6-[rel-(1R,4R,5S)-5- [(5-chloro-4-cyclopropyl-2- pyridyl)methoxy]-2- azabicyclo[2.2.1]heptane-2- carbonyl]-4,4a,5,7,8,8a- hexahydropyrido[4,3- b][1,4]oxazin-3-one [Example 10]”, the IC50 was 16.2 nM. This IC50 is about 41-fold lower than that of the compound before. As to “(4aR,8aS)-6-[rel-(1R,4R,5S)-5- [(5-chloro-4-cyclopropyl-2- pyridyl)methoxy]-2- azabicyclo[2.2.1]heptane-2- carbonyl]-4,4a,5,7,8,8a- hexahydropyrido[4,3- b][l,4]oxazin-3-one [Example 11]”, half-maximal inhibition (IC50) required 82.5 nM. As for “(4aR,8aS)-6-[rel-(1R,4R,5S)-5- [[2-fluoro-4- (trifluoromethyl)phenyl]methoxy]- 2-azabicyclo[2.2.1]heptane-2- carbonyl]-4,4a,5,7,8,8a- hexahydropyrido[4,3- b][1,4]oxazin-3-one [Example 20]”, it took 9.7 nM to reach half-maximal inhibition (IC50). For “(4aR,8aS)-6-[rel-(1R,4R,5S)-5- [[2-fluoro-4- (trifluoromethyl)phenyl]methoxy]- 2-azabicyclo[2.2.1]heptane-2- carbonyl]-4,4a,5,7,8,8a- hexahydropyrido[4,3- b][1,4]oxazin-3-one [Example 21]” the value was 18.6 nM.
